The text below walks through data of patent publication US20140080908A1, “COMPOSITIONS AND METHODS FOR IMPROVING OR […]-LIKE SYMPTOMS” (PHYTO TECH CORP., priority 2012, published 2014).

For series [1], the system named is C57BL/6J mice. The following applies: 30 mg/kg/day orally for 3 months (90 days); compared to calcium gluconate or vehicle; p<0.05; FIG. 2B.
Protocol: In an FST, each mouse is placed in a separate acrylic glass cylinder that is filled with water (23-25° C.) to a level high enough to prevent the mouse from touching the bottom of the cylinder with his paws or tail, yet low enough to prevent the mouse from escaping through the top opening of the cylinder. The mice are thus forced to swim in the cylinders. […] FST is the most widely used as a screen for acute antidepressants, and the duration of immobility is the main parameter by which the effectiveness of an antidepressant treatment is measured.
(§1) Vehicle (saline) was administered to the third group of mice as a control. The animals were then subject to TST and FST.
Series [2] deals with C57BL/6J mice. The following applies: 30 mg/kg/day orally for 3 months (90 days); compared to calcium gluconate or vehicle; p<0.05; FIG. 2A.
Protocol: as §1
A further series concerns human bone marrow cells. The following applies: 1, 2.5, 5 and 7 sec time points; every time point tested; FIG. 1.
The conditions of series [3]: in vivo; cited from earlier work.

`O=C(O)[C@H](O)[C@@H](O)CO` (stereo in doubt) [calcium (2R, 3S)-2,3,4-trihydroxybutyric acid]: the “duration of immobility in FST” value with C57BL/6J mice [1] was “significantly decreased duration of immobility”. In addition, the “duration of immobility in TST” value with C57BL/6J mice [2] is recorded as “significantly decreased duration of immobility”. The “calcium absorption by human bone marrow cells relative to calcium gluconate” value in the series on human bone marrow cells is given as “approximately three times more”. Further, the “bioavailability compared to calcium gluconate, calcium acetate and calcium carbonate” value in series [3] is listed as “higher bioavailability”.
